From US12398111B2, “Triazine compounds and pharmaceutical use thereof” (Japan Tobacco Inc., priority 2014, dated 2025)

Each compound was assayed against T1, human mPGES-1 (Homo sapiens, UniProt O14684) (assay: Evaluation of human mPGES-1 enzyme inhibitory activity (PGE2 measured by HTRF, microsome fraction of CHO-S cells expressing human mPGES-1)). Conditions: IC50 value; microsome fraction of CHO-S cells expressing human mPGES-1, PGE2 by HTRF.
T1 construct: made in house; host or cells: FreeStyle CHO-S cells (Chinese hamster ovary), transient transfection with pcDNA3.1(+)/human mPGES-1; microsome fraction used
T1 sequence (O14684 1-152): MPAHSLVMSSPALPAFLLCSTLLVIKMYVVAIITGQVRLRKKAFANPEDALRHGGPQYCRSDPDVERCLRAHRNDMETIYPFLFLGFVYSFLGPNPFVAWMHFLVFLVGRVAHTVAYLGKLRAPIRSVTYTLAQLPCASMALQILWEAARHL
Type: biochemical
Protocol: That is, the amount of PGE2 produced by human mPGES-1 in the presence of a test article was measured by the HTRF (homogeneous time resolved fluorescence) method, based on which the human mPGES-1 enzyme inhibitory activity of the test article was determined.
1) Preparation of Human mPGES-1 Expressing Cell Microsome Fraction
A DNA fragment containing human mPGES-1, which is added with a BamHI recognition cleavage sequence immediately before the translation initiation codon and an EcoRI recognition cleavage sequence immediately after the translation termination codon was amplified by the PCR (Polymerase Chain Reaction) method using a human mPGES-1 expression plasmid DNA (pME-18S/iPGES-1) prepared in-house as a template. The purified DNA fragment was digested with BamHI and EcoRI, and ligated to pcDNA3.1(+) (Invitrogen, model number V790-20), similarly digested with BamHI and EcoRI, by using a DNA Ligation kit ver.2.1 (Takara Bio, model number 6022). The human mPGES-1 expression plasmid DNA was isolated from Escherichia coli DH5a (TOYOBO, model number DNA-903) transformed with the obtained ligation product. The base sequence of human mPGES-1 cloned to a vector was determined by the Dye Terminator method by using BigDye Terminator v3.1 Cycle Sequencing Kit (Applied Biosystems, #4337455).
Human mPGES-1 expression plasmid DNA was transfected into Chinese hamster ovary-derived cells (FreeStyle CHO-S Cell, Invitrogen, #R800-07) by using a transgene reagent (FreeStyle MAX Reagent (Invitrogen, #16447-100)), and cultured with shaking (8% CO2, 37° C.) in a medium containing 8 mmol/L L-glutamine (GIBCO FreeStyle CHO Expression Medium, Invitrogen, #12651-022) for 48 hr.
The CHO-S cells were suspended in Homogenate Buffer (100 mmol/L potassium phosphate (pH 7.4), 250 mmol/L Sucrose, 100 mmol/L EDTA, complete EDTA free (Roche, #1873580)). Using an ultrasonic disruptor UD-201 (Tomy Seiko), the suspended cells were disrupted at output:3, duty cycle:50 for 30 seconds. The precipitate was removed by centrifugation (1,000×g, 5 min, 4° C.), is and the supernatant was centrifuged (5,000×g, 10 min, 4° C.). The supernatant was further centrifuged (105,000×g, 60 min, 4° C.). The obtained precipitate was suspended in Resuspension Buffer (100 mmol/L potassium phosphate (pH 7.4), 250 mmol/L sucrose, 100 mmol/L EDTA, 10% glycerol) to give a microsome fraction.
The protein concentration of the microsome fraction was measured by the Bradford method (Protein Assay Kit, Bio-Rad). The microsome fraction was rapidly frozen in liquid nitrogen and preserved at −80° C. Human mPGES-1 in the microsome fraction was detected by Western Blot using rabbit anti-mPGES-1 polyclonal antibody (ThermoFisher Scientific, #PA1-10264).
2) Evaluation of Human mPGES-1 Enzyme Inhibitory Activity
A test article solution diluted with 0.1 mol/L potassium phosphate, pH 7.4 (hereinafter to be referred to as KPB) or DMSO (Nacalai Tesque, #13407-45) was added at 5 μL/well to 96 well V-bottom plate (Corning, #3363). The final DMSO concentration during the reaction was set to 2% (v/v). Furthermore, a microsome fraction of CHO-S cells expressing human mPGES-1, which was diluted with reduced GSH (12.5 mmol/L KPB solution, SIGMA, #G6529-25G) such that the protein concentration was 5 μg/mL, was added at 20 μL/well. The amount of the microsome fraction used is the amount of microsome fraction within a range where the amount of PGE2 produced under the reaction conditions shown below and the amount of microsome fraction used show linearity. To the blank was added reduced GSH (12.5 mmol/L KPB solution) at 20 μL/well.

`CCc1cccc(-c2nc(O)nc(-c3cc(CNC(=O)[C@@](C)(OC)C(F)(F)F)ccc3Cl)n2)c1` [Example 1-121] and `CCCc1cccc(-c2nc(O)nc(-c3cc(CNC(=O)C(C)(C)C(F)(F)F)ccc3Cl)n2)c1` [Example 1-102] are within 1.5-fold of each other in IC50: 1.2 nM for the first, 0.9 nM for the second.

Compared with `CCC(CC)C(=O)NCc1ccc(Cl)c(-c2nc(O)nc(-c3ccc(OCC4CC4)cc3)n2)c1` [Example 1-171], `CC(C)(C(=O)NCc1ccc(Cl)c(-c2nc(O)nc(-c3ccc(OCCC4CC4)cc3)n2)c1)C(F)(F)F` [Example 1-167] is 3.8-fold higher in IC50: 0.5 nM for the first, 1.9 nM for the second.

First: CCCCOc1cccc(Cl)c1-c1nc(O)nc(-c2ccc(C(F)(F)F)cc2)n1 [Example 2-31]
Second: Cc1cccc(COc2cccc(Cl)c2-c2nc(O)nc(-c3ccc(C(F)(F)F)cc3)n2)c1 [Example 2-55]
The IC50 of the first is 3.1-fold higher: 31 nM for the first, 10 nM for the second. The second is the more potent here.

Compared with `Oc1nc(-c2ccc(C#Cc3ccccn3)cc2)nc(-c2c(Cl)cccc2OCc2ccccc2)n1` [Example 2-96], `Oc1nc(-c2ccc(C#Cc3ccccc3)c(F)c2)nc(-c2c(OCc3ccccn3)cccc2C(F)(F)F)n1` [Example 2-106] is 4.2-fold lower in IC50: 21 nM for the first, 5 nM for the second.

`CC(C)(C(=O)NCc1ccc(Cl)c(-c2nc(O)nc(-c3ccc(F)c(Cl)c3)n2)c1)C(F)(F)F` [Example 1-153] and `Cc1cc(-c2nc(O)nc(-c3cc(CNC(=O)C(C)(C)C(F)(F)F)ccc3Cl)n2)ccc1F` [Example 1-90] are within 1.5-fold of each other in IC50: 0.5 nM for the first, 0.4 nM for the second.

`Cc1ccc(CO)cc1-c1nc(O)nc(-c2ccc(C(F)(F)F)cc2)n1` [Example 1-45] and `COc1c(C)ccc(Cl)c1-c1nc(O)nc(-c2ccc(C(F)(F)F)cc2)n1` [Example 3-3] are within 1.5-fold of each other in IC50: 138 nM for the first, 141 nM for the second.

First: Cc1cccc(C)c1-c1nc(O)nc(-c2ccc(OC3CCC(C)(C)CC3)cc2)n1 [Example 2-47]
Second: Cc1cccc(C)c1-c1nc(O)nc(-c2ccc(OCC3CCCC3)cc2)n1 [Example 2-50]
The IC50 of the first is 4.8-fold higher: 295 nM for the first, 61 nM for the second.

`Cc1ccc(C#Cc2ccc(-c3nc(O)nc(-c4c(OCc5cccc(C)n5)cccc4C(F)(F)F)n3)cc2)cc1` [Example 2-127] and `Cc1cccc(COc2cccc(C(F)(F)F)c2-c2nc(O)nc(-c3ccc(C#Cc4ccc(F)cc4)cc3)n2)n1` [Example 2-117] are within 1.5-fold of each other in IC50: 6.2 nM for the first, 4.7 nM for the second.

First: O=C(NCc1ccc(Cl)c(-c2nc(O)nc(-c3ccccc3)n2)c1)C1(C(F)(F)F)CCC1 [Example 1-70]
Second: O=C(NCc1ccc(Cl)c(-c2nc(O)nc(-c3ccccc3)n2)c1)C1(C(F)(F)F)CCCC1 [Example 1-68]
The IC50 of the first is 2.3-fold higher: 0.7 nM for the first, 0.3 nM for the second. The second is the more potent here.

Going from `CC(C)(C)COc1ccc(-c2nc(O)nc(-c3cc(CCC(=O)NC(C)(C)C)ccc3Cl)n2)cc1` [Example 1-217] to `COC(C)(C)Cc1ccc(Cl)c(-c2nc(O)nc(-c3ccc(OCC(C)(C)C)cc3)n2)c1` [Example 1-215], the IC50 rises from 126 nM to 452 nM (3.6-fold).

First: COc1cccc(COc2cccc(C(F)(F)F)c2-c2nc(O)nc(-c3ccc(C#Cc4ccccc4)cc3)n2)n1 [Example 2-118]
Second: COc1cccc(C#Cc2ccc(-c3nc(O)nc(-c4c(OCc5cccc(C)n5)cccc4C(F)(F)F)n3)cc2)c1 [Example 2-125]
The IC50 of the first is 1.7-fold higher: 7.1 nM for the first, 4.3 nM for the second. The second is the more potent here.

First: CC(C)Cc1ccc(-c2nc(O)nc(-c3cc(CC(=O)NC(C)(C)C)ccc3Cl)n2)cc1 [Example 1-101]
Second: CC(O)Cc1ccc(Cl)c(-c2nc(O)nc(-c3ccc(OCC(C)(C)C)cc3)n2)c1 (stereo not shown) [Example 1-216]
The IC50 of the first is 6.7-fold lower: 5.8 nM for the first, 39 nM for the second. The first is the more potent here.

Going from `CC(C)c1cccc(-c2nc(O)nc(-c3cc(CNC(=O)C(C)(C)C)ccc3Cl)n2)c1` [Example 1-49] to `CC(C)(C)C(=O)NCc1ccc(Cl)c(-c2nc(O)nc(-c3cccc(F)c3)n2)c1` [Example 1-76], the IC50 rises from 0.9 nM to 1.7 nM (1.9-fold).

`CCOc1ccc(-c2nc(O)nc(-c3cc(CNC(=O)C(C)(C)C(F)(F)F)ccc3Cl)n2)c(C)c1` [Example 1-161] and `CC(C)COc1cccc(-c2nc(O)nc(-c3cc(CNC(=O)C(C)(C)C(F)(F)F)ccc3Cl)n2)c1` [Example 1-88] are within 1.5-fold of each other in IC50: 1.3 nM for the first, 1.2 nM for the second.

Going from `Oc1nc(-c2ccc(C#Cc3ccc(C(F)(F)F)cc3)cc2)nc(-c2c(OCc3ccccn3)cccc2C(F)(F)F)n1` [Example 2-105] to `CC(C)(C)COc1ccc(-c2nc(O)nc(-c3c(Cl)cccc3OCc3ccccn3)n2)cc1` [Example 2-62], the IC50 falls from 18 nM to 9.3 nM (1.9-fold). The second is the more potent here.

Going from `C[C@@H](Oc1cccc(Cl)c1-c1nc(O)nc(-c2ccc(OCC(C)(C)C)cc2)n1)c1ccccn1` [Example 2-63] to `C[C@H](Oc1cccc(Cl)c1-c1nc(O)nc(-c2ccc(OCC(C)(C)C)cc2)n1)c1ccccn1` [Example 2-64], the IC50 falls from 259 nM to 12 nM (22-fold). The second is the more potent here.

Going from `Cc1cccc(C)c1-c1nc(O)nc(-c2ccc(Cl)c(OCc3ccccc3)c2)n1` [Example 2-48] to `Cc1cccc(C)c1-c1nc(O)nc(-c2ccc(F)cc2)n1` [Example 2-24], the IC50 rises from 19 nM to 2400 nM (130-fold). The first is the more potent here.

First: Cc1cccc(C)c1-c1nc(O)nc(-c2ccc(C(F)(F)F)cc2F)n1 [Example 2-9]
Second: Cc1ccc(Cl)c(-c2nc(O)nc(-c3ccc(C(F)(F)F)cc3)n2)c1OCCO [Example 3-9]
The IC50 of the first is 8.2-fold higher: 6400 nM for the first, 776 nM for the second.

Going from `CC(C)(C(=O)NCc1ccc(Cl)c(-c2nc(O)nc(-c3ccc(OCC(F)(F)F)cc3)n2)c1)C(F)(F)F` [Example 1-113] to `CC(C)(C)OC(=O)NCc1ccc(Cl)c(-c2nc(O)nc(-c3ccc(C(F)(F)F)cc3)n2)c1` [Example 1-15], the IC50 rises from 0.9 nM to 7.4 nM (8.2-fold). The first is the more potent here.

First: COCc1cccc(-c2nc(O)nc(-c3cc(CNC(=O)C(C)(C)C)ccc3Cl)n2)c1 [Example 1-75]
Second: CC(C)(C)C(=O)NCc1ccc(Cl)c(-c2nc(O)nc(-c3ccc(F)cc3)n2)c1 [Example 1-74]
The IC50 of the first is 11-fold higher: 6.7 nM for the first, 0.6 nM for the second. The second is the more potent here.

First: COCCc1ccc(Cl)c(-c2nc(O)nc(-c3ccc(OCC(C)(C)C)cc3)n2)c1 [Example 1-199]
Second: CCN(Cc1ccc(Cl)c(-c2nc(O)nc(-c3ccc(OCC(C)(C)C)cc3)n2)c1)C(=O)OC(C)(C)C [Example 1-209]
The IC50 of the first is 1.9-fold lower: 31 nM for the first, 59 nM for the second. The first is the more potent here.

`Cc1cc(-c2nc(O)nc(-c3cc(CNC(=O)C(C)(C)C(F)(F)F)ccc3Cl)n2)cc(C)c1OCC1CC1` [Example 1-176] and `Cc1c(CNC(=O)C(C)(C)C(F)(F)F)ccc(Cl)c1-c1nc(O)nc(-c2ccc(CC(C)C)cc2)n1` [Example 3-14] are within 1.5-fold of each other in IC50: 1.8 nM for the first, 2 nM for the second.

Compared with `CCC(C)(C)C(=O)N(C)Cc1ccc(Cl)c(-c2nc(O)nc(-c3ccccc3)n2)c1` [Example 1-231], `CN(Cc1ccc(Cl)c(-c2nc(O)nc(-c3ccccc3)n2)c1)C(=O)C1CCCCC1` [Example 1-229] is 12-fold higher in IC50: 45 nM for the first, 532 nM for the second.

First: CNC(=O)c1cc(-c2nc(O)nc(-c3ccc(OCC4CC4)cc3)n2)c(Cl)cc1C [Example 3-21]
Second: CO[C@](C)(C(=O)NC(C)c1ccc(Cl)c(-c2nc(O)nc(-c3ccc(OCC(C)(C)C)cc3)n2)c1)C(F)(F)F (single isomer, unassigned) [Example 1-201]
The IC50 of the first is 2-fold higher: 611 nM for the first, 306 nM for the second.

Going from `C[C@H](Oc1cccc(Cl)c1-c1nc(O)nc(-c2ccc(OCC(C)(C)C)cc2)n1)c1ccccc1` [Example 2-65] to `O=C(NCc1ccc(Cl)c(-c2nc(O)nc(-c3cccc(OC(F)(F)F)c3)n2)c1)C1(C(F)(F)F)CCCC1` [Example 1-78], the IC50 falls from 151 nM to 2.2 nM (69-fold). The second is the more potent here.

Same assay, conditions: at 30 μM test article

Going from `Cc1ccc(C(N)=O)cc1-c1nc(O)nc(-c2ccc(C(F)(F)F)cc2)n1` [Example 1-11] to `Cc1cccc(C)c1-c1nc(O)nc(-c2cccc(O)c2)n1` [Example 2-30], the inhibition at 30 µM rises from 42% to 43%.
